Measurements: US9981940B2, “Aryl sulfide derivatives and aryl sulfoxide derivatives as acaricides and insecticides” (BAYER CROPSCIENCE AKTIENGESELLSCHAFT, priority 2013, dated 2018)

What was measured:
[1] = system: Tetranychus urticae; assay: Tetranychus urticae spray test, OP-resistant (TETRUR); assay type: in vivo; conditions: after 6 days; for pest or weed control at 500 g/ha: Tetranychus urticae, 144 h, read-out: efficacy
Method: Tetranychus urticae—Spray Test, OP-Resistant (TETRUR)
• Solvent: 78.0 parts by weight of acetone • 1.5 parts by weight of dimethylformamide • Emulsifier: 0.5 part by weight of alkylaryl polyglycol ether
To produce an appropriate active ingredient formulation, 1 part by weight of active ingredient is mixed with the specified amounts of solvent and emulsifier, and the concentrate is diluted to the desired concentration with emulsifier-containing water.
Discs of bean leaves (Phaseolus vulgaris) infested by all stages of the greenhouse red spider mite (Tetranychus urticae) are sprayed with an active ingredient formulation of the desired concentration.
After 6 days, the efficacy in % is determined 100% means that all the spider mites have been killed; 0% means that none of the spider mites have been killed.

[2] = log P by HPLC (OECD Guideline 117), method [a] acidic range; assay type: physicochemical; conditions: for chromatographic logP: reversed-phase C18 HPLC column, acidic range; for logP[a]: HPLC, method [a] acidic range
Method: (§1) The log P values were determined analogously to OECD Guideline 117 (EC Directive 92/69/EEC) by HPLC (high-performance liquid chromatography) using reversed-phase columns (C 18), by the following methods:
[a] The LC-MS determination in the acidic range is effected at pH 2.7 with 0.1% aqueous formic acid and acetonitrile (contains 0.1% formic acid) as eluents; linear gradient from 10% acetonitrile to 95% acetonitrile.

[3] = log P by HPLC (OECD Guideline 117), method [b] neutral range; assay type: physicochemical; conditions: HPLC; for chromatographic logP: reversed-phase C18 HPLC column, neutral range, pH 7.8; for logP[b]: method [b] neutral range
Method: as §1
[b] The LC-MS determination in the neutral range is effected at pH 7.8 with 0.001 molar aqueous ammonium hydrogencarbonate solution and acetonitrile as eluents; linear gradient from 10% acetonitrile to 95% acetonitrile.

[4] = pH 2.7, HPLC method [a], read-out: logP[a]
[5] = pH 2.7, HPLC, pH 2.7, read-out: log P[a]

SMILES	chromatographic logP [2, 4]	chromatographic logP [2, 5]	chromatographic logP [3]	logP[a] [2]	logP[b] [3]	pest or weed control at 500 g/ha ([1]; application rate of 500 g/ha) [%]	efficacy ([1]; application rate of 500 g/ha) [%]	efficacy ([1]; application rate of 20 g/ha) [%]
CNn1c(C2CC2)nn(-c2cc([S+]([O-])CC(F)(F)F)c(C)cc2F)c1=O (stereo not drawn) [Example 208]				2.09	2.05		100	
Cc1cc(F)c(-n2nc(OC(C)C)n(C3CC3)c2=O)cc1[S+]([O-])CC(F)(F)F (stereo not drawn) [Example 100]				2.82	2.79		100	
Cc1ccc(-n2nc(OC(C)C)n(C3CC3)c2=O)cc1SCC(F)(F)F [Example 91]				4.59	4.54		100	
Cc1cc(F)c(-n2nc(C(C)C)n(C3CC3)c2=O)cc1[S+]([O-])CC(F)(F)F (stereo not drawn) [Example 43]				2.52	2.47		100	
Cc1cc(F)c(-n2nc(C3CC3)n(C3CC3)c2=O)cc1SCC(F)(F)F [Example 65]				3.39	3.33		100	
COc1nn(-c2cc([S+]([O-])CC(F)(F)F)c(Cl)cc2Cl)c(=O)n1C (stereo not drawn) [Example 97]				2.26	2.24		90	
COc1nn(-c2ccc(C(F)(F)F)c(SCC(F)(F)F)c2)c(=O)n1C1CC1 [Example 144]				4.14	3.85		90	
CCCCOc1nn(-c2cc(SCC(F)(F)F)c(C)cc2F)c(=O)n1C1CC1 [Example 125]				4.41	4.35		90	
CNn1c(N(C)C)nn(-c2cc(SCC(F)(F)F)c(C)cc2F)c1=O [Example 216]				3.03	2.99		100	
CC[S+]([O-])c1nn(-c2cc([S+]([O-])CC(F)(F)F)c(C)cc2F)c(=O)n1C (stereo not drawn) [Example 244, 5-(Ethylsulphinyl)-2-{2-fluoro-4-methyl-5-[(2,2,2-trifluoroethyl)sulphinyl]phenyl}-4-methyl-2,4-dihydro-3H-1,2,4-triazol-3-one]	1.69	1.69	1.65			100		
Cc1cc(F)c(-n2nc(C(C)C)n(N)c2=O)cc1[S+]([O-])CC(F)(F)F (stereo not drawn) [Example 204]				1.96	1.95		100	
CCCOc1nn(-c2cc(SCC(F)(F)F)c(C)cc2F)c(=O)n1C [Example 127]				3.61	3.57		100	
Cc1cc(F)c(-n2ncn(N)c2=O)cc1SCC(F)(F)F [Example 211]				2.02	2.01		100	
Cc1cc(F)c(-n2nc(Oc3ccccc3)n(C)c2=O)cc1SCC(F)(F)F [Example 158]				3.70	3.66		100	
O=c1n(-c2ccc(C(F)(F)F)c(SCC(F)(F)F)c2)nc(OCC(F)(F)F)n1C1CC1 [Example 189]				4.55	4.48		100	
Cc1cc(F)c(-n2nc(OC3CCCCC3)n(C)c2=O)cc1SCC(F)(F)F [Example 153]				4.50	4.44		100	
CCC(C)c1nn(-c2cc([S+]([O-])CC(F)(F)F)c(C)cc2F)c(=O)n1C1CC1 (racemic) [Example 86]				2.86	2.79		100	
COCc1nn(-c2cc(SCC(F)(F)F)c(C)cc2F)c(=O)n1N [Example 198]				2.28	2.22		100	
Cc1ccc(-n2nc(OCC(C)(C)C)n(C)c2=O)cc1[S+]([O-])CC(F)(F)F (stereo not drawn) [Example 162]				3.67	3.57		90	
COc1nn(-c2cc([S+]([O-])CC(F)(F)F)c(F)cc2F)c(=O)n1C1CC1 (stereo not drawn) [Example 170]				2.15	2.11		100	
CCCCc1nn(-c2cc([S+]([O-])CC(F)(F)F)c(C)cc2F)c(=O)n1C1CC1 (racemic) [Example 72]				2.94	2.88		90	
CCn1c(C(F)(F)F)nn(-c2cc(SCC(F)(F)F)c(C)cc2Cl)c1=O [Example 50]				4.14	4.07		100	

More lines, main results first:

chromatographic logP [2, 4]	chromatographic logP [2, 5]	chromatographic logP [3]	logP[a] [2]	logP[b] [3]	SMILES	pest or weed control at 500 g/ha ([1]; application rate of 500 g/ha) [%]	efficacy ([1]; application rate of 500 g/ha) [%]	efficacy ([1]; application rate of 20 g/ha) [%]
2.7	2.7	2.77			Cc1cc(F)c(-n2nc(S(C)(=O)=O)n(C)c2=O)cc1SCC(F)(F)F [Example 420, 2-{2-Fluoro-4-methyl-5-[(2,2,2-trifluoroethyl)sulphanyl]phenyl}-4-methyl-5-(methylsulphonyl)-2,4-dihydro-3H-1,2,4-triazol-3-one]	90		
			3.30	3.25	Cc1cc(F)c(-n2nc(SCC(F)F)n(C)c2=O)cc1[S+]([O-])CC(F)(F)F (racemic) [Example 289]		100	
			3.79	3.71	Cc1cc(Cl)c(-n2nc(OCC(C)(C)C)n(C3CC3)c2=O)cc1[S+]([O-])CC(F)(F)F (stereo not drawn) [Example 404]		100	
			3.53	3.46	CCc1nn(-c2cc(SCC(F)(F)F)c(C)cc2F)c(=O)o1 [Example 455]		100	
			2.03	1.98	Cc1cc(F)c(-n2nc([S+]([O-])CC3CC3)n(C)c2=O)cc1[S+]([O-])CC(F)(F)F (stereo not drawn) [Example 248]		100	
			3.94	3.89	C=CCn1c(OCC(F)(F)F)nn(-c2cc(SCC(F)(F)F)c(C)cc2F)c1=O [Example 399]		90	
			4.03	3.96	C=CCn1c(SCC)nn(-c2cc(SCC(F)(F)F)c(C)cc2F)c1=O [Example 428]		100	
			3.24	3.19	Cc1cc(F)c(-n2nc(OCc3ccccc3)n(C3CC3)c2=O)cc1[S+]([O-])CC(F)(F)F (stereo not drawn) [Example 414]		100	
			5.00	4.88	Cc1cc(F)c(-n2nc(C3CCCCC3)n(C3CC3)c2=S)cc1SCC(F)(F)F [Example 496]		90	
			2.46	2.42	COn1c(C(C)C)nn(-c2cc([S+]([O-])CC(F)(F)F)c(C)cc2F)c1=O (stereo not drawn) [Example 419]		100	
			2.73	2.69	Cc1cc(F)c(-n2nc(SCC(F)F)n(C3CC3)c2=O)cc1[S+]([O-])CC(F)(F)F (stereo not drawn) [Example 256]		90	
1.99	1.99	2.02			Cc1nn(-c2cc([S+]([O-])CC(F)(F)F)c(C)cc2F)c(=O)o1 (stereo not drawn) [Example 451, 3-{2-Fluoro-4-methyl-5-[(2,2,2-trifluoroethyl)sulphinyl]phenyl}-5-methyl-1,3,4-oxadiazol-2(3H)-one]	90		
			2.73	2.68	Cc1cc(F)c(-n2nc(SC(C)C)n(C)c2=O)cc1[S+]([O-])CC(F)(F)F (stereo not drawn) [Example 275]		100	
			2.34	2.30	CCn1c(Cl)nn(-c2cc([S+]([O-])CC(F)(F)F)c(C)cc2F)c1=O (stereo not drawn) [Example 436]		100	
			4.30	4.25	Cc1cc(F)c(-n2nc(C(C)(C)C)oc2=O)cc1SCC(F)(F)F [Example 449]		90	
			2.97	2.92	Cc1cc(F)c(-n2nc(C3CC3)n(C)c2=O)cc1SCC(F)(F)F [Example 346]		90	
			2.81	2.76	CCSc1nn(-c2cc([S+]([O-])CC(F)(F)F)c(C)cc2F)c(=O)n1C1CC1 (stereo not drawn) [Example 262]		100	
			2.34	2.28	Cc1cc(C)c([S+]([O-])CC(F)(F)F)cc1-n1ncn(C(C)(C)C)c1=O (stereo not drawn) [Example 372]		100	
			2.25	2.21	Cc1cc(F)c(-n2nc(C(C)C)n(N)c2=O)cc1S(=O)(=O)CC(F)(F)F [Example 417]		100	
			2.19	2.14	CCOC1=CC(=O)N(c2cc([S+]([O-])CC(F)(F)F)c(C)cc2F)C1 (stereo not drawn) [Example 334]			90
			2.24	2.23	COC1=CC(=O)N(c2ccc(Cl)c([S+]([O-])CC(F)(F)F)c2)C1 (racemic) [Example 315]		90	
			4.46	4.39	CCC(C)c1nn(-c2cc(SCC(F)(F)F)c(C)cc2F)c(=S)n1C1CC1 (stereo not drawn) [Example 499]		90	
